Each structure is given as a SMILES string. A value given as a limit tells only on which side of the number the result lay.

For the test, the target named is T1, APOL1 (Homo sapiens, UniProt O14791).
T1 sequence (O14791 1-398): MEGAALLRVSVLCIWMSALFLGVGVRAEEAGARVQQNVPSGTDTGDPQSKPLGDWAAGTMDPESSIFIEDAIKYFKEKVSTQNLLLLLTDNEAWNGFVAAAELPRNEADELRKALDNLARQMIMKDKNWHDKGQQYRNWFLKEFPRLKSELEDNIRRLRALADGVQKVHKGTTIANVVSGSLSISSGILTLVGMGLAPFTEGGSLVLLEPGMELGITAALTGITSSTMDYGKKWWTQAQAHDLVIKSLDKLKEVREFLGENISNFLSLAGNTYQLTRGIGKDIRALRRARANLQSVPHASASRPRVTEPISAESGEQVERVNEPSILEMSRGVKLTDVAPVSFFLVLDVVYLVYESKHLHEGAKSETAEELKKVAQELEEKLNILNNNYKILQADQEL
Briefly: MultiTox-Fluor Multiplex Cytotoxicity Assay, tet-inducible APOL1 T-REx-HEK293 cells (G0, G1 or G2 clone not specified for Table 20). Format: cell-based. The settings on record: tet-induced, 24 hours with compound, ratio of dead to live cells, read-out: IP50 (i.e., IC50 for cell proliferation). The gist of the method: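 HEK293 T-REx cells with tet-inducible APOL1 G0, G1 or G2 clone, 23,400/well, treated with tetracycline plus compound (top 10 μM, 10-point 3-fold, duplicate) for 24 h at 37° C. MultiTox-Fluor dead/live fluorescence ratio, normalized to no-tet (100% viability) and 50 ng/mL tet (0% viability) controls, then curve-fitted.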
Take `CNC(=O)C1OC2(CCN(Cc3cnn(-c4cccc(C(F)(F)F)c4)c3)CC2)c2cc(Cl)ccc21` (stereo not drawn) [Compound 295, 5-chloro-N-methyl-1′-[[1-[3-(trifluoromethyl)phenyl]pyrazol-4-yl]methyl]spiro[1H-isobenzofuran-3,4′-piperidine]-1-carboxamide]: the IC50 is at most 50 nM.

As to `COc1ccc2c(c1)C1(CCN(Cc3cnn(-c4ccccc4)c3)CC1)OC2C(N)=O` (stereo not drawn) [Compound 296, 6-methoxy-1′-((1-phenyl-1H-pyrazol-4-yl)methyl)-3H-spiro[isobenzofuran-1,4′-piperidine]-3-carboxamide], the IC50 was at least 500 nM.

On to `CNC(=O)C1OC2(CCN(Cc3cnn(-c4ccccc4)c3)CC2)c2cc(OC)ccc21` (stereo not drawn) [Compound 297, 6-methoxy-N-methyl-1′-((1-phenyl-1H-pyrazol-4-yl)methyl)-3H-spiro[isobenzofuran-1,4′-piperidine]-3-carboxamide], for which the IC50 is at least 500 nM.

With `CNC(=O)C1OC2(CCN(Cc3cnn(C(C)C)c3)CC2)c2cc(Cl)ccc21` (stereo not drawn) [Compound 298, 6-chloro-1′-((1-isopropyl-1H-pyrazol-4-yl)methyl)-N-methyl-3H-spiro[isobenzofuran-1,4′-piperidine]-3-carboxamide], the IC50 is at least 500 nM.

Turning to `CNC(=O)C1OC2(CCN(Cc3cnn(-c4ccccc4)c3C)CC2)c2cc(Cl)ccc21` (stereo not drawn) [Compound 299, 6-chloro-N-methyl-1′-((5-methyl-1-phenyl-1H-pyrazol-4-yl)methyl)-3H-spiro[isobenzofuran-1,4′-piperidine]-3-carboxamide], the IC50 is at least 500 nM.

Take `CS(=O)(=O)CCn1cc(CN2CCC3(CC2)CC(O)c2ccc(Cl)cc23)cn1` (stereo not drawn) [Compound 302, 5-chloro-1′-[[1-(2-methylsulfonylethyl)pyrazol-4-yl]methyl]spiro[indane-3,4′-piperidine]-1-ol]: the IC50 lay in the range of 50 to 500 nM.

As to `CC1(O)CC2(CCN(Cc3cnn(CCS(C)(=O)=O)c3)CC2)c2cc(Cl)ccc21` (stereo not drawn) [Compound 303, 5-chloro-1-methyl-1′-[[1-(2-methylsulfonylethyl)pyrazol-4-yl]methyl]spiro[indane-3,4′-piperidine]-1-ol], the IC50 was at least 500 nM.

For `Cc1ccc2c(c1)C1(CCN(Cc3cnn(C)c3)CC1)SC2` [Compound 304, 5-methyl-1′-[(1-methylpyrazol-4-yl)methyl]spiro[1H-2-benzothiophene-3,4′-piperidine]], the IC50 is at least 500 nM.

`CS(=O)(=O)CCn1cc(CN2CCC3(CC2)CNc2ccc(Cl)cc23)cn1` [Compound 305, 5-chloro-1′-[[1-(2-methylsulfonylethyl)pyrazol-4-yl]methyl]spiro[indoline-3,4′-piperidine]]: the IC50 is at least 500 nM.

As to `Cc1ccc2c(c1)C1(CCN(Cc3cnn(CCS(C)(=O)=O)c3)[C@@H](C)C1)CC2O` (stereo partly drawn) [Compound 308, (2′S)-2′,5-dimethyl-1′-[[1-(2-methylsulfonylethyl)pyrazol-4-yl]methyl]spiro[indane-3,4′-piperidine]-1-ol], the IC50 is at most 50 nM.

On to `Cc1cccc2c1C(O)CC21CCN(Cc2cnn(CCS(C)(=O)=O)c2)[C@@H](C)C1` (stereo partly drawn) [Compound 309, (2′S)-2′,4-dimethyl-1′-((1-(2-(methylsulfonyl)ethyl)-1H-pyrazol-4-yl)methyl)-2,3-dihydrospiro[indene-1,4′-piperidin]-3-ol], for which the IC50 lay within 50 to 500 nM.

For the compound `Cn1cc(CN2CCC3(CCc4ccc(Cl)cc43)CC2)cn1` [Compound 310, 6-chloro-1′-[(1-methylpyrazol-4-yl)methyl]spiro[indane-1,4′-piperidine]], the IC50 is at least 500 nM.

With `Cn1cc(CN2CCC3(CC2)NCc2ccc(Cl)cc23)cn1` [Compound 311, 6-chloro-1′-[(1-methylpyrazol-4-yl)methyl]spiro[isoindoline-1,4′-piperidine]], the IC50 is at least 500 nM.

On to `CS(=O)(=O)CCn1cc(CN2CCC3(CC2)CC(N2CCNC2=O)c2ccc(Cl)cc23)cn1` (stereo not drawn) [Compound 312, 1-[5-chloro-1′-[[1-(2-methylsulfonylethyl)pyrazol-4-yl]methyl]spiro[indane-3,4′-piperidine]-1-yl]imidazolidin-2-one], for which the IC50 was at least 500 nM.

`CC(=O)N1CC2(CCN(Cc3cnn(C)c3)CC2)c2cc(Cl)ccc21` [Compound 314, 1-[5-chloro-1′-[(1-methylpyrazol-4-yl)methyl]spiro[indoline-3,4′-piperidine]-1-yl]ethenone]: the IC50 is at least 500 nM.

For the origin of these results see patent US20250195483A1, “SPIRO PIPERIDINE DERIVATIVES AS INHIBITORS OF APOL1 AND METHODS OF USING SAME” (Vertex Pharmaceuticals Incorporated, priority 2022, published 2025).
